Data from US10221161B2, “Inhibitors of plasma kallikrein” (Kalvista Pharmaceuticals Limited, priority 2013, dated 2019).

Assays:
Human KLK1 = Human KLK1 (Homo sapiens (Human), UniProt P06870); experiment: Determination of the IC50 for KLK1 (fluorogenic substrate H-DVal-Leu-Arg-AFC); assay type: biochemical; conditions: human KLK1, 37° C.
Protocol: Selected compounds were further screened for inhibitory activity against the related enzyme KLK1. The ability of the compounds of formula (I) to inhibit KLK1 may be determined using the following biological assay:
Determination of the IC50 for KLK1
KLK1 inhibitory activity in vitro was determined using standard published methods (see e.g. Johansen et al., Int. J. Tiss. Reac. 1986, 8, 185; Shori et al., Biochem. Pharmacol., 1992, 43, 1209; Stürzebecher et al., Biol. Chem. Hoppe-Seyler, 1992, 373, 1025). Human KLK1 (Callbiochem) was incubated at 37° C. with the fluorogenic substrate H-DVal-Leu-Arg-AFC and various concentrations of the test compound. Residual enzyme activity (initial rate of reaction) was determined by measuring the change in optical absorbance at 410 nm and the IC50 value for the test compound was determined.

Human plasma kallikrein = Human plasma kallikrein (Homo sapiens (Human), UniProt P03952); experiment: Determination of the IC50 for plasma kallikrein (fluorogenic substrate H-DPro-Phe-Arg-AFC); assay type: biochemical; conditions: 37° C., read-out: IC50 (human PKal)
Protocol: Determination of the IC50 Plasma Kallikrein Plasma kallikrein inhibitory activity in vitro was determined using standard published methods (see e.g. Johansen et al., Int. J. Tiss. […] Shori et al., Biochem. Pharmacol., 1992, 43, 1209; Stürzebecher et al., Biol. Chem. Hoppe-Seyler, 1992, 373, 1025). Human plasma kallikrein (Protogen) was incubated at 37° C. with the fluorogenic substrate […] and various concentrations of the test compound.

Human KLK1, sequence (P06870 25-262): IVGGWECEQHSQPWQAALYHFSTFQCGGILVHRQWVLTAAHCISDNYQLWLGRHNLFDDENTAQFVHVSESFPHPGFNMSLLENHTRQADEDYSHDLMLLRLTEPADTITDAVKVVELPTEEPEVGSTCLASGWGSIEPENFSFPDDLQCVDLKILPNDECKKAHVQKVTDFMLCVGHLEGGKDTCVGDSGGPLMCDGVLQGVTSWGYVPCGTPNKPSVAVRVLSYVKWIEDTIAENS
Human plasma kallikrein, sequence (P03952 391-638 limits assumed): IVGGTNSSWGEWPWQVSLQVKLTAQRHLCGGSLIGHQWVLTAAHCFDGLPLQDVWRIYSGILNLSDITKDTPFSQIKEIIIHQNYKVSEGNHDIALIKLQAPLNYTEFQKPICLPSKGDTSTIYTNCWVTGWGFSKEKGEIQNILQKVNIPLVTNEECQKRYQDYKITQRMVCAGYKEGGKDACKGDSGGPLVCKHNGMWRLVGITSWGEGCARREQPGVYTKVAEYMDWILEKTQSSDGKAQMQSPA
Human plasma kallikrein, sequence (P03952 20-390 partner limits assumed): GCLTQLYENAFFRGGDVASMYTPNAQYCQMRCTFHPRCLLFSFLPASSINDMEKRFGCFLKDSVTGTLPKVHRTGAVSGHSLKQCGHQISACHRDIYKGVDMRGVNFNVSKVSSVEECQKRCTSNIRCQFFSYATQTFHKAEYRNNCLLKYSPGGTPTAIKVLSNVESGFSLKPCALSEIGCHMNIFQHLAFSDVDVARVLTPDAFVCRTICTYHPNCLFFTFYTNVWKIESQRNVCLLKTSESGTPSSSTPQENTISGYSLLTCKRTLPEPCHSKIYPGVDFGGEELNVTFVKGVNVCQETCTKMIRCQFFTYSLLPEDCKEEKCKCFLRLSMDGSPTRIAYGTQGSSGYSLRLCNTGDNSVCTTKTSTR

Row | Structure (SMILES) | IC50 (Human KLK1) [µM] | IC50 (Human plasma kallikrein) [µM]
1 | Nc1nccc2cc(CNC(=O)c3cncc(Cc4ccc(N5CCC(O)C5)nc4)c3)ccc12 (stereo not drawn) [Example 59, N-[(1-Aminoisoquinolin-6-yl)methyl]-5-{[6-(3-hydroxypyrrolidin-1-yl)pyridin-3-yl]methyl}pyridine-3-carboxamide] | 6.01 | 0.417
2 | Nc1nccc2cc(CNC(=O)c3cncc(Cc4ccnc(N5CCC(F)C5)c4)c3)ccc12 (stereo not drawn) [Example 82, N-[(1-Aminoisoquinolin-6-yl)methyl]-5-{[2-(3-fluoropyrrolidin-1-yl)pyridin-4-yl]methyl}pyridine-3-carboxamide] | 4 | 0.0678
3 | Nc1nccc2cc(CNC(=O)c3cncc(Cc4ccnc(N5CCCCC5)c4)c3)ccc12 [Example 78, N-[(1-Aminoisoquinolin-6-yl)methyl]-5-{[2-(piperidin-1-yl)pyridin-4-yl]methyl}pyridine-3-carboxamide] | 6.93 | 0.164
4 | Cc1ccc2cc(Cc3cnc(C)c(C(=O)NCc4ccc5c(N)nccc5c4)c3)ccc2n1 [Example 22, N-[(1-Aminoisoquinolin-6-yl)methyl]-2-methyl-5-[(2-methylquinolin-6-yl)methyl]pyridine-3-carboxamide] | 0.484 | 0.104
5 | Nc1nccc2cc(CNC(=O)c3cncc(Cc4ccc(N5CCCC5CO)nc4)c3)ccc12 (stereo not drawn) [Example 67, N-[(1-Aminoisoquinolin-6-yl)methyl]-5-({6-[2-(hydroxymethyl)pyrrolidin-1-yl]pyridin-3-yl}methyl)pyridine-3-carboxamide] | 5.15 | 0.0733
6 | Nc1nccc2cc(CNC(=O)c3cncc(CN4CCN(CCc5ccccc5)CC4)c3)ccc12 [Example 51, N-[(1-Aminoisoquinolin-6-yl)methyl]-5-{[4-(2-phenylethyl)piperazin-1-yl]methyl}pyridine-3-carboxamide] | > 10 | 8.11
7 | Cc1ccc2cc(Cc3cnc(O)c(C(=O)NCc4ccc5c(N)nccc5c4)c3)ccc2n1 [Example 20, N-[(1-Aminoisoquinolin-6-yl)methyl]-5-[(2-methylquinolin-6-yl)methyl]-2-oxo-1H-pyridine-3-carboxamide] | 2.49 | 0.621
8 | COC1CCN(c2ccc(Cc3cncc(C(=O)NCc4ccc5c(N)nccc5c4)c3)cn2)C1 (stereo not drawn) [Example 62, N-[(1-Aminoisoquinolin-6-yl)methyl]-5-{[6-(3-methoxypyrrolidin-1-yl)pyridin-3-yl]methyl}pyridine-3-carboxamide] | 8.89 | 0.255
9 | Nc1nccc2cc(CNC(=O)c3cncc(Cc4csc(-c5ccccc5)n4)c3)ccc12 [Example 24, N-[(1-Aminoisoquinolin-6-yl)methyl]-5-[(2-phenyl-1,3-thiazol-4-yl)methyl]pyridine-3-carboxamide] | 4 | 1.71
10 | CCN(CC)c1ccc(Cc2cncc(C(=O)NCc3ccc4c(N)nccc4c3)c2)cn1 [Example 66, N-[(1-Aminoisoquinolin-6-yl)methyl]-5-{[6-(diethylamino)pyridin-3-yl]methyl}pyridine-3-carboxamide] | 5.85 | 0.0527
11 | Cc1cnn(Cc2ccc(Cc3cncc(C(=O)NCc4c(C)nc5[nH]ccc(C)c4-5)c3)cc2)c1 [Example 12, N-({2,4-Dimethyl-7H-pyrrolo[2,3-b]pyridin-3-yl}methyl)-5-({4-[(4-methylpyrazol-1-yl)methyl]phenyl}methyl)pyridine-3-carboxamide] | 14.9 | 0.244
12 | Nc1nccc2cc(CNC(=O)c3cncc(Cc4ccc(N5CCC(F)(F)C5)nc4)c3)ccc12 [Example 57, N-[(1-Aminoisoquinolin-6-yl)methyl]-5-{[6-(3,3-difluoropyrrolidin-1-yl)pyridin-3-yl]methyl}pyridine-3-carboxamide] | > 40 | 0.24
13 | CC1CCN(c2cc(Cc3cncc(C(=O)NCc4ccc5c(N)nccc5c4)c3)ccn2)C1 (stereo not drawn) [Example 83, N-[(1-Aminoisoquinolin-6-yl)methyl]-5-{[2-(3-methylpyrrolidin-1-yl)pyridin-4-yl]methyl}pyridine-3-carboxamide] | 2.87 | 0.106
14 | Cc1cnn(Cc2ccc(C(O)c3cncc(C(=O)NCc4ccc5c(N)nccc5c4)c3)cc2)c1 (stereo not drawn) [Example 7, N-((1-Aminoisoquinolin-6-yl)methyl)-5-(hydroxy(4-((4-methyl-1H-pyrazol-1-yl)methyl)phenyl)methyl)nicotinamide] | 8.02 | 0.0353
15 | Cc1cnn(Cc2ccc(Cc3cncc(C(=O)NCc4ccc(CN)c(F)c4)c3)cc2)c1 [Example 96, N-{[4-(Aminomethyl)-3-fluorophenyl]methyl}-5-({4-[(4-methylpyrazol-1-yl)methyl]phenyl}methyl)pyridine-3-carboxamide] | > 40 | 0.365
16 | Cc1cnn(Cc2ccc(Cn3cc(C(=O)NCc4ccc5c(N)nccc5c4)ccc3=O)cc2)c1 [Example 15, N-[(1-Aminoisoquinolin-6-yl)methyl]-1-({4-[(4-methylpyrazol-1-yl)methyl]phenyl}methyl)-6-oxopyridine-3-carboxamide] | 17.6 | 0.159
17 | Nc1nccc2cc(CNC(=O)c3cncc(CN4CCN(C(=O)c5ccccc5)CC4)c3)ccc12 [Example 36, N-[(1-Aminoisoquinolin-6-yl)methyl]-5-[(4-benzoylpiperazin-1-yl)methyl]pyridine-3-carboxamide] | 23.8 | 6.65
18 | Nc1nccc2cc(CNC(=O)c3cncc(Cc4ccc(N5CCCC5=O)nc4)c3)ccc12 [Example 53, N-[(1-Aminoisoquinolin-6-yl)methyl]-5-{[6-(2-oxopyrrolidin-1-yl)pyridin-3-yl]methyl}pyridine-3-carboxamide] | 3.86 | 0.2
19 | COc1ccccc1Cc1cncc(C(=O)NCc2ccc3c(N)nccc3c2)c1 [Example 29, N-[(1-Aminoisoquinolin-6-yl)methyl]-5-[(2-methoxyphenyl)methyl]pyridine-3-carboxamide] | 7.35 | 20.2
20 | Nc1nccc2cc(CNC(=O)c3cncc(Cc4ccc(N5CCC(CO)C5)nc4)c3)ccc12 (stereo not drawn) [Example 71, N-[(1-Aminoisoquinolin-6-yl)methyl]-5-({6-[3-(hydroxymethyl)pyrrolidin-1-yl]pyridin-3-yl}methyl)pyridine-3-carboxamide] | 3.95 | 0.306
21 | Cc1cnn(Cc2ccc(Cc3cnnc(C(=O)NCc4ccc5c(N)nccc5c4)c3)cc2)c1 [Example 11, N-[(1-Aminoisoquinolin-6-yl)methyl]-5-({4-[(4-methylpyrazol-1-yl)methyl]phenyl}methyl)pyridazine-3-carboxamide] | 37.1 | 0.0823
22 | CN1CCN(c2cc(Cc3cncc(C(=O)NCc4ccc5c(N)nccc5c4)c3)ccn2)CC1 [Example 86, N-[(1-Aminoisoquinolin-6-yl)methyl]-5-{[2-(4-methylpiperazin-1-yl)pyridin-4-yl]methyl}pyridine-3-carboxamide] | 4.46 | 0.395
23 | Cc1ccc2cc(Cn3cc(C(=O)NCc4ccc5c(N)nccc5c4)ccc3=O)ccc2n1 [Example 16, N-[(1-Aminoisoquinolin-6-yl)methyl]-1-[(2-methylquinolin-6-yl)methyl]-6-oxopyridine-3-carboxamide] | 2.06 | 0.179
24 | Nc1nccc2cc(CNC(=O)c3cncc(Cc4ccnc(N5CCOCC5)c4)c3)ccc12 [Example 85, N-[(1-Aminoisoquinolin-6-yl)methyl]-5-{[2-(morpholin-4-yl)pyridin-4-yl]methyl}pyridine-3-carboxamide] | 8.54 | 1.67
25 | Nc1nccc2cc(CNC(=O)c3cncc(Cc4ccc5ncccc5c4)c3)ccc12 [Example 31, N-[(1-Aminoisoquinolin-6-yl)methyl]-5-(quinolin-6-ylmethyl)pyridine-3-carboxamide] | 4.13 | 0.144
26 | Nc1nccc2cc(CNC(=O)c3cncc(Cc4ccc(-n5cccn5)cc4)c3)ccc12 [Example 27, N-[(1-Aminoisoquinolin-6-yl)methyl]-5-{[4-(pyrazol-1-yl)phenyl]methyl}pyridine-3-carboxamide] | 12.1 | 1.01
27 | Cc1ccc2cc(Cc3cncc(C(=O)NCc4ccc5c(N)nccc5c4)c3)ccc2n1 [Example 17, N-[(1-Aminoisoquinolin-6-yl)methyl]-5-[(2-methylquinolin-6-yl)methyl]pyridine-3-carboxamide] | 1.12 | 0.0275
28 | Nc1nccc2cc(CNC(=O)c3cncc(Cc4cccc(-n5cccn5)c4)c3)ccc12 [Example 30, N-[(1-Aminoisoquinolin-6-yl)methyl]-5-{[3-(pyrazol-1-yl)phenyl]methyl}pyridine-3-carboxamide] | 2.85 | 0.302
29 | Nc1nccc2cc(CNC(=O)c3cncc(Cc4ccc(N5CCCCC5)nc4)c3)ccc12 [Example 56, N-[(1-Aminoisoquinolin-6-yl)methyl]-5-{[6-(piperidin-1-yl)pyridin-3-yl]methyl}pyridine-3-carboxamide] | > 40 | 0.313
30 | Cc1ccc2cc(Cc3cncc(C(=O)NCc4ccc5c(N)nccc5c4)n3)ccc2n1 [Example 10, N-[(1-Aminoisoquinolin-6-yl)methyl]-6-[(2-methylquinolin-6-yl)methyl]pyrazine-2-carboxamide] | 3.02 | 0.194
